Reference: patent publication US20080306114A1, “Human G Protein-Coupled Receptor and Modulators Thereof for the Treatment of Hyperglycemia and Related Disorders” (Arena Pharmaceuticals, Inc, priority 2004, published 2008)
Entries after “also recorded” stand apart in the source; their conditions may differ.

How the values were obtained:
[1] = tested on: Mock transfected HEK293 cells (empty pCMV vector); test: Whole-cell cyclase Flashplate cAMP assay, Mock transfected HEK293 cells; type: cell-based, human; details: serially diluted compound, 1 hour
Procedure: (§1) HEK 293 cells obtained from ATCC were used for all assays. Culture media consisted of […] of DMEM supplemented with 10% fetal bovine serum (Gibco, BRL). Cyclic AMP measurements were determined using the Adenylyl Cyclase Activation Flashplate® Assay with direct cAMP [^125I] Detection system.
(§2) HEK 293 cells (5×10^5 cells/ml) were plated in 15 cm dishes. […] Briefly, transfection mixture consisting of OptiMEM (Gibco, BRL) and FuGENE 6 reagent were mixed together and allow to incubate for 5 minutes at room temperature. Transfection reagent was added drop-wise into a separate tube containing 2 μg of endogenous human RUP43 receptor plasmid (Tranfected) or 2 μg of empty pCMV vector (Mock) and allowed to incubate for 15 minutes at room temperature. The DNA/transfection mixture was added drop-wise to each perspective plate and incubated over night in a humidified incubator maintained at 37° C., 95/5% […]. The next day, the media was replaced with normal growth media and the cells were incubated over night.
(§3) On Day 3, the cells were rinsed once with PBS and dislodged from the plate using a nonenzymatic cell-dissociation buffer (Gibco, BRL) and resuspended in assay stimulation Buffer® Perkin Elmer) at a density of 2×10^6 cell/ml for measurement of cAMP. […] At the end of the 2 hour incubation, the plate was aspirated and cAMP levels were determined using Wallac 1450 microbeta counter.

endogenous human RUP43 [2] = target: T1, endogenous human RUP43 (Homo sapiens, UniProt Q8TDU6); test: Whole-cell cyclase Flashplate cAMP assay, RUP43-transfected HEK293 cells; type: cell-based; set-up: expressed in transfected cells; host or cells: HEK293 cells (ATCC), transient transfection with FuGENE 6
T1 sequence (Q8TDU6 1-330): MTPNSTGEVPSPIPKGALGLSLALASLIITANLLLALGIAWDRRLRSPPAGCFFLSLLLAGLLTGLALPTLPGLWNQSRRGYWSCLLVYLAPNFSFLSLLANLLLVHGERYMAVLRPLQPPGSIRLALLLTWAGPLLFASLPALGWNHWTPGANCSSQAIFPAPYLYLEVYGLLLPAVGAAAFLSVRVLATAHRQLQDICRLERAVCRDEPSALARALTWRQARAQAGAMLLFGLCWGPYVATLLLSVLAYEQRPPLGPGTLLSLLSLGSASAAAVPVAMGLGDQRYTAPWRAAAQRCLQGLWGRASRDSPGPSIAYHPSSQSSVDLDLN
Procedure: as §1, §2, §3

[3] = tested on: primary human skeletal muscle cells; test: In vitro glucose uptake assay in primary human skeletal muscle cells; type: cell-based
Procedure: (§4) The in vitro glucose uptake assay was carried out as described here.
(§5) KRPH buffer: 5 mM NaHPO4, pH 7.4 (Make KRPH buffer fresh each time) • 20 mM Hepes, pH 7.4 • 1 mM MgSO4 • 1 mM CaCl2 • 136 mM NaCl • 4.7 mM KCl • 1% BSA
(§6) For each well, add 1 μl containing 1 μCi [^3H]-2-DOG and 1 μl cold stock 2-DOG and 2 ml KRPH.
(§7) Use CytoB at 10 μM final to block carrier-mediated uptake. Also use this concentration at the end to stop the reaction. The stop buffer is PBS plus 10 μm CytoB (“PBS”).
(§8) 1. Starve cells for at least 2 hrs.
(§9) 2. Wash cells 2 times with KRPH buffer and add 2 mls of KRPH to the well.
(§10) 3. Treat cells with insulin and/or with test compound, or with vehicle (Control), for 20 min.
(§11) 4. After 20 min, aspirate the buffer from the well and immediately add 1 ml of KRPH buffer plus 2-DOG. For CytoB-treated cells, add CytoB 5 min before uptake assay.
(§12) 5. After 4 min, aspirate the buffer from the well and add 3 mls of cold PBS. After completing the assay, wash the cells in each well 2 times with cold PBS. Aspirate the Stop PBS completely, and then add 700 ul of 1% Triton X. Place in 37° C. incubator for 30 min.
(§13) 6. Count CPM in total lysate. Calculate CPM/well.
(§14) Subtract the CytoB value from the value obtained for each of cells treated with insulin and/or with test compound and cells treated with vehicle (Control).
Primary human skeletal muscle cells obtained from Cambrex were grown to 50% confluence and then differentiated on culture with inducing medium for 5 to 7 days. The differentiated primary human skeletal muscle cells were then transferred to growth medium for 7 to 10 days.
Differentiated human skeletal muscle cells were treated with or without various concentrations of Compound 2 in serum-free medium for 3 hr. After treatment with or without Compound 2, the cells were washed twice with fresh KRPH buffer. […] After treatment with or without insulin, glucose uptake was determined according to Example 17. […]
Differentiated human skeletal muscle cells were treated with 50 μM Compound 2 for various time periods. At the end of each treatment period, glucose uptake was determined according to Example 17.

endogenous human RUP43 [4] = target: T1, endogenous human RUP43; test: Melanophore assay; type: cell-based; set-up: expressed in transfected cells; host or cells: melanophores (skin cells of lower vertebrates), transfected by electroporation
Source text: Melanophores are skin cells found in lower vertebrates. They contain pigmented organelles termed melanosomes. Melanophores are able to redistribute these melanosomes along a microtubule network upon G-protein coupled receptor (GPCR) activation. The result of this pigment movement is an apparent lightening or darkening of the cells. In melanophores, the decreased levels of intracellular cAMP that result from activation of a […] receptor cause melanosomes to migrate to the center of the cell, resulting in a dramatic lightening in color. If cAMP levels are then raised, following activation of a Gs-coupled receptor, the melanosomes are re-dispersed and the cells appear dark again. The increased levels of diacylglycerol that result from activation of Gq-coupled receptors can also induce this re-dispersion. In addition, the technology is also suited to the study of certain receptor tyrosine kinases. The response of the melanophores takes place within minutes of receptor activation and results in a simple, robust color change. The response can be easily detected using a conventional absorbance microplate reader or a modest video imaging system. Unlike other skin cells, the melanophores derive from the neural crest and appear to express a full complement of signaling proteins. In particular, the cells express an extremely wide range of G-proteins and so are able to functionally express almost all GPCRs.
Melanophores can be utilized to identify compounds, including natural ligands, against GPCRs. This method can be conducted by introducing test cells of a pigment cell line capable of dispersing or aggregating their pigment in response to a specific stimulus and expressing an exogenous clone coding for the GCPR. A stimulant, e.g., melatonin, sets an initial state of pigment disposition wherein the pigment is aggregated within the test cells if activation of the GPCR induces pigment dispersion. […] The test cells are then contacted with chemical compounds, and it is determined whether the pigment disposition in the cells changed from the initial state of pigment disposition. […]

mouse 3T3L1 adipocytes = test: In vitro glucose uptake assay in 3T3L1 adipocytes; type: cell-based
Procedure: as §4, §5, §6, §7, §8, §9, §10, §11
5. After 4 min, aspirate the buffer from the well and add 3 mls of cold PBS. After completing the assay, wash the cells in each well 2 times with cold PBS. […]
Differentiated mouse 3T3L1 adipocytes were treated with 50 μM Compound 2 for various times, after which glucose uptake was determined according to Example 17.
Differentiated mouse 3T3L1 adipocytes were treated with (“Compound 2”) or without (“Control”) Compound 2 in serum-free medium for 3 hr. […] After treatment with insulin, glucose uptake was determined according to Example 17.

rat L6 myoblast cells = test: In vitro glucose uptake assay in L6 myoblast cells; type: cell-based
Procedure: as §4, §5, §6, §7, §8, §9, §10, §11, §12, §13, §14
Rat skeletal muscle L6 myoblast cells were obtained from ATCC and grown in 24-well plates to confluence.
Confluent L6 cells were treated with or without various concentrations of Compound 2 in serum-free medium for 3 hr. The L6 cells were then washed twice with KRPH buffer. L6 cells which had been treated with Compound 2 were incubated with KRPH buffer for 20 min; L6 cells which had not been treated with Compound 2 were treated with 10 nM or 100 nM insulin for 20 min. After treatment with or without insulin, glucose uptake was determined according to Example 17. […] As skeletal muscle cells are responsible for 80% of glucose disposal in vivo, the results obtained indicate that RUP43 agonist is an attractive candidate for providing better glucose disposal in vivo than does insulin.
Confluent L6 myoblast cells were treated with 50 μM Compound 2 for various times. At the end of each treatment period, glucose uptake was determined according to Example 17.
Confluent rat L6 myoblast cells were treated with or without 50 μM Compound 2 for 3 hr in serum-free medium. The L6 cells were then washed twice with fresh KRPH buffer. The L6 cells were then treated with or without 100 nM insulin for 20 min. After treatment with or without insulin, glucose uptake was determined according to Example 17. […] The results further indicate that RUP43 agonist can increase insulin efficacy, thereby lowering the concentration of insulin required to achieve maximal glucose uptake. […]

primary human adipocytes = test: In vitro glucose uptake assay in primary human adipocytes; type: cell-based; details: 50 μM for 3 hr
Procedure: as §4, §5, §6, §7, §8, §9, §10, §11, §12, §13, §14
Human preadipocytes (Cambrex) were differentiated into adipocytes. The differentiated primary human adipocytes were treated with or without 50 μM Compound 2 for 3 hr in serum-free medium. The human adipocytes were then washed with fresh KRPH buffer twice and treated with or without 100 nM insulin for 20 min. After treatment with or without insulin, glucose uptake was determined according to Example 17.

[5] = various concentrations 3 hr vs 10 nM or 100 nM insulin 20 min

Row | SMILES | intracellular cAMP [1] | intracellular cAMP (endogenous human RUP43 [2]; HEK293 cells transfected with endogenous human RUP43, serially diluted compound, 1 hour) | agonist of RUP43 (identification) (endogenous human RUP43 [2]; whole-cell cAMP, HEK293 transfected with endogenous human RUP43) | time course of glucose uptake ([3]; 50 μM for various time periods) | glucose uptake compared with insulin [3, 5] | glucose uptake ([3]; various concentrations for 3 hr, absence of insulin) | agonist of RUP43 (identification) (endogenous human RUP43 [4]; melanophore technology) | EC50 (endogenous human RUP43 [4]; melanophores transfected with endogenous human RUP43, 100 uM-51.2 pM, one hour) | Curve height (endogenous human RUP43 [4]; percent control response vs positive control wells (200) and negative control wells (100)) | glucose uptake (mouse 3T3L1 adipocytes; 50 μM Compound 2 for various times, no insulin) | insulin-stimulated glucose uptake (mouse 3T3L1 adipocytes; compound 3 hr in serum-free medium, then various concentrations of insulin 20 min) | insulin-stimulated glucose uptake (rat L6 myoblast cells; 50 μM for 3 hr, then 100 nM insulin 20 min) | time to stimulation of glucose uptake (rat L6 myoblast cells; 50 μM for various times) | glucose uptake compared with insulin (rat L6 myoblast cells; [5]) | glucose uptake (rat L6 myoblast cells; various concentrations for 3 hr, no insulin) | level of stimulated glucose uptake compared with insulin (primary human adipocytes; absence of insulin vs 100 nM insulin) | insulin-stimulated glucose uptake (primary human adipocytes; then 100 nM insulin 20 min) | glucose uptake (primary human adipocytes; without insulin)
1 | CN(C(=O)c1csc(C2CCN(C(=O)Cc3ccccc3Cl)CC2)n1)c1c2c(nn1C)CCCC2 [Compound 1, 2-{1-[2-(2-Chloro-phenyl)-acetyl]-piperidin-4-yl}-thiazole-4-carboxylicacid methyl-(2-methyl-4,5,6,7-tetrahydro-2H-indazol-3-yl)-amide] | not in Mock transfected cells | in a dose dependent manner, led to an increase in intracellular cAMP | agonist of RUP43 | – | – | – | – | – | – | – | – | – | – | – | – | – | – | –
2 | O=C(Cc1ccccc1Cl)N1CCC(c2nc(C(=O)N3CCCc4ccccc43)cs2)CC1 [Compound 2, 2-(2-Chloro-phenyl)-1-{4-[4-(3,4-dihydro-2H-quinoline-1-carbonyl)-thiazol-2-yl]-piperidin-1-yl}-ethanone] | – | – | – | rapid stimulation of glucose uptake | more effectively than insulin | efficacious at stimulating glucose uptake; also recorded: stimulates glucose uptake | agonist of endogenous human RUP43 | 212 nM | approximately 92 % of control | stimulates glucose uptake | enhances insulin-stimulated glucose uptake | enhances insulin-stimulated glucose uptake | ≤ 20 min | greater glucose uptake in rat L6 myoblast than did insulin | stimulates glucose uptake | comparable to the level of insulin-stimulated glucose uptake | enhanced insulin-stimulated glucose uptake | stimulates glucose uptake
